Laboratory results: ChEMBL document CHEMBL6109129, “Discovery of Conformationally Constrained Dihydro Benzo-Indole Derivatives as Metallo-β-Lactamase Inhibitors to Tackle Multidrug-Resistant Bacterial Infections” (J Med Chem, 2025)
Calls of active or inactive are those of the source. The rule behind the calls is not given here.

Assays:
[1] = molecular target: Metallo-beta-lactamase type 2 (Bacteria) (UniProt C7C422); experiment: Induction of thermal stabilization of NDM-1 (unknown origin) assessed as increase in melting temperature by differential scanning fluorimetry analysis; conditions: dose 3.12-50 µM
Chain of Metallo-beta-lactamase type 2 (Bacteria) (C7C422 whole entry): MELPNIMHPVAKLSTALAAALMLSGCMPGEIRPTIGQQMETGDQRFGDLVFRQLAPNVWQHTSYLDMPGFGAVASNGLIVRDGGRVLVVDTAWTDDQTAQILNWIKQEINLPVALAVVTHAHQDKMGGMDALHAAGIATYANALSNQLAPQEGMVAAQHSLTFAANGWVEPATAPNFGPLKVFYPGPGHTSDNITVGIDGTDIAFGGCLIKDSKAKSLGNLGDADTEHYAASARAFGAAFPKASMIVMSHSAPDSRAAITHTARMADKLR

Enterobacter cloacae [2] = experiment: Synergistic antibacterial activity against carbapenem-resistant Enterobacter cloacae BAA-2468 assessed as reduction in microbial growth at 8 ug/ml measured after 16 to 18 hrs in presence of imipenem by microbial dilution method; format: functional; conditions: dose 8 µg/ml, time 16-18 hrs
[3] = Metabolic stability in human liver microsomes assessed as parent compound remaining at 1 uM measured at 60 mins in presence of NADPH by LC-MS/MS analysis; format: ADME, Microsome; conditions: read-out: Stability
Escherichia coli [4] = experiment: Synergistic antibacterial activity against carbapenem-resistant Escherichia coli 567975 assessed as reduction in microbial growth at 4 ug/ml measured after 16 to 18 hrs in presence of imipenem by microbial dilution method; format: functional; conditions: dose 4 µg/ml, time 16-18 hrs
Escherichia coli [5] = experiment: Synergistic antibacterial activity against carbapenem-resistant Escherichia coli BAA-2471 assessed as reduction in microbial growth at 16 ug/ml measured after 16 to 18 hrs in presence of imipenem by microbial dilution method; format: functional; conditions: dose 16 µg/ml, time 16-18 hrs
Klebsiella pneumoniae [6] = experiment: Synergistic antibacterial activity against carbapenem-resistant Klebsiella pneumoniae 565345 assessed as reduction in microbial growth at 16 ug/ml measured after 16 to 18 hrs in presence of imipenem by microbial dilution method; format: functional; conditions: dose 16 µg/ml, time 16-18 hrs
[7] = tested on: Klebsiella pneumoniae subsp. pneumoniae; experiment: Synergistic antibacterial activity against carbapenem-resistant Klebsiella pneumoniae BAA-2472 assessed as reduction in microbial growth at 16 ug/ml measured after 16 to 18 hrs in presence of meropenem by microbial dilution method; format: functional; conditions: dose 16 µg/ml, time 16-18 hrs
Klebsiella pneumoniae [8] = experiment: Synergistic antibacterial activity against carbapenem-resistant Klebsiella pneumoniae 552439 assessed as reduction in microbial growth at 4 ug/ml measured after 16 to 18 hrs in presence of imipenem by microbial dilution method; format: functional; conditions: dose 4 µg/ml, time 16-18 hrs
Escherichia coli [9] = experiment: Synergistic antibacterial activity against carbapenem-resistant Escherichia coli BAA-2471 assessed as reduction in microbial growth at 16 ug/ml measured after 16 to 18 hrs in presence of meropenem by microbial dilution method; format: functional; conditions: dose 16 µg/ml, time 16-18 hrs
Escherichia coli [10] = experiment: Synergistic antibacterial activity against carbapenem-resistant Escherichia coli 571307 assessed as reduction in microbial growth at 16 ug/ml measured after 16 to 18 hrs in presence of meropenem by microbial dilution method; format: functional; conditions: dose 16 µg/ml, time 16-18 hrs
[11] = tested on: Klebsiella pneumoniae subsp. pneumoniae; experiment: Synergistic antibacterial activity against carbapenem-resistant Klebsiella pneumoniae subsp. pneumoniae BAA-2470 assessed as reduction in microbial growth at 0.5 ug/ml measured after 16 to 18 hrs in presence of meropenem by microbial dilution method; format: functional; conditions: dose 0.5 µg/ml, time 16-18 hrs
Klebsiella pneumoniae [12] = experiment: Synergistic antibacterial activity against carbapenem-resistant Klebsiella pneumoniae BAA-2473 assessed as reduction in microbial growth at 16 ug/ml measured after 16 to 18 hrs in presence of imipenem by microbial dilution method; format: functional; conditions: dose 16 µg/ml, time 16-18 hrs
[13] = Inhibition of IMP-1 (unknown origin) using FC5 as substrate preincubated for 10 mins followed by substrate addition and measured immediately by fluorescence based analysis; design: species or system Bacteria
Escherichia coli [14] = experiment: Synergistic antibacterial activity against carbapenem-resistant Escherichia coli 541588 assessed as reduction in microbial growth at 4 ug/ml measured after 16 to 18 hrs in presence of imipenem by microbial dilution method; format: functional; conditions: dose 4 µg/ml, time 16-18 hrs
Escherichia coli [15] = experiment: Synergistic antibacterial activity against carbapenem-resistant Escherichia coli BAA-2469 assessed as reduction in microbial growth at 0.5 ug/ml measured after 16 to 18 hrs in presence of imipenem by microbial dilution method; format: functional; conditions: dose 0.5 µg/ml, time 16-18 hrs
Escherichia coli [16] = experiment: Synergistic antibacterial activity against carbapenem-resistant Escherichia coli 571307 assessed as reduction in microbial growth at 4 ug/ml measured after 16 to 18 hrs in presence of meropenem by microbial dilution method; format: functional; conditions: dose 4 µg/ml, time 16-18 hrs
Escherichia coli [17] = experiment: Synergistic antibacterial activity against carbapenem-resistant Escherichia coli 565988 assessed as reduction in microbial growth at 4 ug/ml measured after 16 to 18 hrs in presence of meropenem by microbial dilution method; format: functional; conditions: dose 4 µg/ml, time 16-18 hrs
Klebsiella pneumoniae [18] = experiment: Synergistic antibacterial activity against carbapenem-resistant Klebsiella pneumoniae 571278 assessed as reduction in microbial growth at 4 ug/ml measured after 16 to 18 hrs in presence of meropenem by microbial dilution method; format: functional; conditions: dose 4 µg/ml, time 16-18 hrs
[19] = tested on: Klebsiella pneumoniae subsp. pneumoniae; experiment: Synergistic antibacterial activity against carbapenem-resistant Klebsiella pneumoniae subsp. pneumoniae BAA-2470 assessed as reduction in microbial growth at 8 ug/ml measured after 16 to 18 hrs in presence of imipenem by microbial dilution method; format: functional; conditions: dose 8 µg/ml, time 16-18 hrs
Escherichia coli [20] = experiment: Synergistic antibacterial activity against carbapenem-resistant Escherichia coli 565988 assessed as reduction in microbial growth at 4 ug/ml measured after 16 to 18 hrs in presence of imipenem by microbial dilution method; format: functional; conditions: dose 4 µg/ml, time 16-18 hrs
[21] = Apparent permeability the compound in PBS buffer at pH 7.4 measured after 5 hrs by LC-MS/MS analysis; format: ADME; conditions: not told
[22] = tested on: Klebsiella pneumoniae subsp. pneumoniae; experiment: Synergistic antibacterial activity against carbapenem-resistant Klebsiella pneumoniae subsp. pneumoniae BAA-2472 assessed as reduction in microbial growth at 8 ug/ml measured after 16 to 18 hrs in presence of imipenem by microbial dilution method; format: functional; conditions: dose 8 µg/ml, time 16-18 hrs
Enterobacter cloacae [23] = experiment: Synergistic antibacterial activity against carbapenem-resistant Enterobacter cloacae BAA-2468 assessed as reduction in microbial growth at 16 ug/ml measured after 16 to 18 hrs in presence of meropenem by microbial dilution method; format: functional; conditions: dose 16 µg/ml, time 16-18 hrs
Klebsiella pneumoniae [24] = experiment: Synergistic antibacterial activity against carbapenem-resistant Klebsiella pneumoniae 538961 assessed as reduction in microbial growth at 16 ug/ml measured after 16 to 18 hrs in presence of imipenem by microbial dilution method; format: functional; conditions: dose 16 µg/ml, time 16-18 hrs
Escherichia coli [25] = experiment: Synergistic antibacterial activity against carbapenem-resistant Escherichia coli BAA-2469 assessed as reduction in microbial growth at 8 ug/ml measured after 16 to 18 hrs in presence of imipenem by microbial dilution method; format: functional; conditions: dose 8 µg/ml, time 16-18 hrs
Escherichia coli [26] = experiment: Synergistic antibacterial activity against carbapenem-resistant Escherichia coli BAA-2469 assessed as reduction in microbial growth at 8 ug/ml measured after 16 to 18 hrs in presence of meropenem by microbial dilution method; format: functional; conditions: dose 8 µg/ml, time 16-18 hrs
[27] = Metabolic stability in mouse liver microsomes assessed as parent compound remaining at 1 uM measured at 60 mins in presence of NADPH by LC-MS/MS analysis; format: ADME, Microsome; conditions: read-out: Stability
[28] = molecular target: Metallo-beta-lactamase type 2 (Bacteria) (UniProt C7C422); experiment: Induction of thermal stabilization of NDM-1 (unknown origin) assessed as melting temperature at 12.5 uM by differential scanning fluorimetry analysis
[29] = tested on: Klebsiella pneumoniae subsp. pneumoniae; experiment: Synergistic antibacterial activity against carbapenem-resistant Klebsiella pneumoniae BAA-2470 assessed as reduction in microbial growth at 16 ug/ml measured after 16 to 18 hrs in presence of imipenem by microbial dilution method; format: functional; conditions: dose 16 µg/ml, time 16-18 hrs
Escherichia coli [30] = experiment: Synergistic antibacterial activity against carbapenem-resistant Escherichia coli 571307 assessed as reduction in microbial growth at 4 ug/ml measured after 16 to 18 hrs in presence of imipenem by microbial dilution method; format: functional; conditions: dose 4 µg/ml, time 16-18 hrs
Klebsiella pneumoniae [31] = experiment: Synergistic antibacterial activity against carbapenem-resistant Klebsiella pneumoniae 538961 assessed as reduction in microbial growth at 4 ug/ml measured after 16 to 18 hrs in presence of imipenem by microbial dilution method; format: functional; conditions: dose 4 µg/ml, time 16-18 hrs
[32] = Plasma protein binding in human assessed as unbound fraction at 10 uM measured after 5 hrs by LC-MS/MS analysis; format: ADME, cell-free

## COc1ccc(Cl)cc1-c1c(C(=O)O)[nH]c2c1CCc1ccccc1-2
[1]
  Activity: Active
Enterobacter cloacae [2]
  MIC: 64 µg/mL
[3]
  remaining at 1 h, 1 µM: 56%
Escherichia coli [4]
  MIC: 8 µg/mL
Escherichia coli [5]
  MIC: 8 µg/mL
Klebsiella pneumoniae [6]
  MIC: 8 µg/mL
[7]
  MIC: 32 µg/mL
Klebsiella pneumoniae [8]
  MIC: 4 µg/mL
Escherichia coli [9]
  MIC: 16 µg/mL
Escherichia coli [10]
  MIC: 0.5 µg/mL
[11]
  MIC: 32 µg/mL
Klebsiella pneumoniae [12]
  MIC: 8 µg/mL
[13]
  IC50: 14 nM
Escherichia coli [14]
  MIC: 1 µg/mL
Escherichia coli [15]
  MIC: 32 µg/mL
Escherichia coli [16]
  MIC: 2 µg/mL
Escherichia coli [17]
  MIC: 1 µg/mL
Klebsiella pneumoniae [18]
  MIC: 32 µg/mL
[19]
  MIC: 2 µg/mL
Escherichia coli [20]
  MIC: 1 µg/mL
[21]
  Papp at 5 h: 14 ×10⁻⁶ cm/s
[22]
  MIC: 32 µg/mL
Enterobacter cloacae [23]
  MIC: 4 µg/mL
Klebsiella pneumoniae [24]
  MIC: 2 µg/mL
Escherichia coli [25]
  MIC: 8 µg/mL
Escherichia coli [26]
  MIC: 4 µg/mL
[27]
  remaining at 1 h, 1 µM: 44.2%
[28]
  Tm: 18 °C
[29]
  MIC: 2 µg/mL
Escherichia coli [30]
  MIC: 4 µg/mL
Klebsiella pneumoniae [31]
  MIC: 32 µg/mL
[32]
  fraction unbound at 5 h, 10 µM: 0.992
